Data on one compound can be found in patent US20240369535A1, “METHODS AND MATERIALS FOR DETERMINING pGC TARGET DOSAGE” (Mayo Foundation for Medical Education and Research, priority 2021, published 2024).

One assay addresses T1, human GC-A (Homo sapiens, UniProt P16066).
T1 construct: expressed in transfected cells
T1 sequence (P16066 33-1061): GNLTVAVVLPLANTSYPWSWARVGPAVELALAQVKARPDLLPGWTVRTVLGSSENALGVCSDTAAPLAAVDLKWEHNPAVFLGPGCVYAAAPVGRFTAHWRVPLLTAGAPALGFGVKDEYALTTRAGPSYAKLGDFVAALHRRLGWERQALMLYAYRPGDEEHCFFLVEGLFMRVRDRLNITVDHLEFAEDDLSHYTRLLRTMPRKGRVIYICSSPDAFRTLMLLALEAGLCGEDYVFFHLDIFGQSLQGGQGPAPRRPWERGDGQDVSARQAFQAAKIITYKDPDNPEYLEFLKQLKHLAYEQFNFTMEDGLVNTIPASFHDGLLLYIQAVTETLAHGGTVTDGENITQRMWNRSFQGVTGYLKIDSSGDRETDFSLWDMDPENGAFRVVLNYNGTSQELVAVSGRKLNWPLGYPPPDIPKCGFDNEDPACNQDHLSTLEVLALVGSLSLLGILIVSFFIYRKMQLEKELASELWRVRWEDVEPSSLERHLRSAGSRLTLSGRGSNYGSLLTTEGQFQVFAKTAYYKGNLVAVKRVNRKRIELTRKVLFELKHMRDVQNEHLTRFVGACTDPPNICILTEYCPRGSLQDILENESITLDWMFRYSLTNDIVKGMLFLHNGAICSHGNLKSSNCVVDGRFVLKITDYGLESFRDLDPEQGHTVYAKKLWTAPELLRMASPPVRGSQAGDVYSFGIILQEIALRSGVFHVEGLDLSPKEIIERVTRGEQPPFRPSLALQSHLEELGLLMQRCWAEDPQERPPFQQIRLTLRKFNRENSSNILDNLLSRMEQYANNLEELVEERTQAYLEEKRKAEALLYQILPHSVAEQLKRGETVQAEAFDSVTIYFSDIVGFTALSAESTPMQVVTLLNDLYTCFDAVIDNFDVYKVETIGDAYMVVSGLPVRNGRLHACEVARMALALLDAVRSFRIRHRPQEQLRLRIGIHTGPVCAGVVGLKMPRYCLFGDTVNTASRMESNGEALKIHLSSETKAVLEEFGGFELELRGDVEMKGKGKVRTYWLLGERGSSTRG
As to the kind of experiment: Ex vivo MCUF-651 therapeutic potency assay with human plasma (Example 2), HEK293 overexpressing human GC-A. In kind it is cell-based. On the procedure:
Ex Vivo MCUF-651 Therapeutic Potency Assay with Human Plasma from Normal Subjects and Patients with Hypertension and Heart Failure: Stored human plasma samples from normal subjects and patients with HT and HF were utilized. The details of the recruitment of these participants were as described elsewhere (Reginauld et al., supra; and Ferrario et al., Hypertension 77:882-890, 2021). […] HEK293 overexpressing human GC-A were cultured and grown as described above. Cells were grown in 48-well plates to 80-90% confluence. On the day of the experiment, cells were pre-incubated with MCUF-651 at doses of 1, 5, or 10 μM or with vehicle (Veh) in 250 μL treatment buffer (as described above) for 5 minutes at 37° C. 25 μL of human plasma was then added and incubated for additional 10 minutes. Cells were then washed with PBS once and lysed with 0.1 M HCl, and intracellular cGMP levels were measured in the lysate using a commercial cGMP ELISA kit (Enzo Life Sciences, Farmingdale, NY) as instructed by the manufacturer.

The target of a further assay is T2, human pGC-A (Homo sapiens, UniProt P16066).
T2 construct: expressed in transfected cells
T2 sequence (P16066 33-1061): T1 sequence (P16066 33-1061)
As to the kind of experiment: MCUF-651/NP/pGC-A/cGMP potency assay (Example 5), HEK293 cells overexpressing human pGC-A. The following applies: for cGMP potency: particularly at 5 and 10 μM. In kind it is cell-based. The procedure: In vitro Cell Culture: HEK 293 cells were stably transfected with human pGC-A or pGC-B using LIPOFECTAMINE™ (Invitrogen, Grand Island, NY) (Chen et al. 2020, supra). Transfected cells (HEK/GC-A or (HEK/GC-B) were maintained in DMEM supplemented with 10% FBS and 250 μg/ml G418. Cells in 48-well plates were grown to 80-90% confluency and then incubated in Hanks Balanced Salt Solution (HBSS, Invitrogen) containing 20 mM HEPES, 0.1% BSA, and 0.5 mM 3-isobutyl-1-methylxanthine (IBMX, Sigma).
MCUF-651/NP/pGC-A/cGMP Potency Assay: Human plasma samples from patients with HT (N=6), ADHF (N=6), and CKD (N=5) were utilized. The details of the recruitment of participants are described above. Stably transfected HEK293 cells engineered to overexpress human pGC-A were cultured (as described above) and grown in 48-well plates to 80-90% confluence. On the day of the experiment, human plasma was diluted 10× with HBSS. 250 μl of diluted plasma was added together with vehicle (DSMO) or the MCUF-651 small molecule pGC-A positive allosteric modulator at doses of 1, 5, or 10 μM to the HEK/pGC-A cells and incubated for 10 minutes at 37° C. Cells were then washed with PBS once and lysed with 0.1 M HCl, and intracellular cGMP levels were measured in the lysate using a commercial cGMP ELISA kit (Enzo Life Sciences, Farmingdale, NY) as instructed by the manufacturer.

Regarding `CN(C)CCN1CCCC(C(=O)Nc2nc3c(F)cc(F)cc3s2)C1` (stereo not shown) [MCUF-651], the “generation of cGMP levels” value on human GC-A (1, 5 or 10 μM, plasma from normal subjects, hypertensive and HF patients (all three cohorts)) is reported as “potentiated”. For the same compound, the “cGMP potency compared between cohorts” value on human GC-A (HF plasma, highest circulating ANP and BNP) is given as “greatest cGMP potency”. The cGMP potency result on human pGC-A (ADHF plasma with higher circulating ANP and BNP) is “higher cGMP potency”; on human pGC-A (ADHF plasma with lower circulating ANP and BNP), “lower cGMP potency”. Besides, the cGMP levels entry on human pGC-A (ADHF plasma, dose 1 μM) is on record as “modestly potentiated”; on human pGC-A (ADHF plasma, dose 5 μM), “markedly potentiated”; at human pGC-A (ADHF plasma, dose 10 μM), “markedly potentiated”; on human pGC-A (CKD plasma, dose 1 μM) it was “no response”; at human pGC-A (CKD plasma, dose 5 μM), “minimally potentiated”; at human pGC-A (CKD plasma, dose 10 μM) it was “minimally potentiated”. The cGMP levels result on human pGC-A (HT plasma, dose 1 μM) is recorded as “modestly potentiated”; on human pGC-A (HT plasma, dose 5 μM) it was “markedly potentiated”; at human pGC-A (HT plasma, dose 10 μM), “markedly potentiated”.
